Laboratory results published in patent US20150017717A1, “CULTURE MEDIUM FOR EUKARYOTIC CELLS” (Friesland Brands B.V., priority 2012, published 2015).

Assays:
[1] = system: cell culture (antibody production); test: Linear regression of antibody production in cell culture assays against relative concentration of components in plant protein hydrolysates; format: cell-based; conditions: linear regression over plant protein hydrolysates, MS Excel SLOPE function
Experimental: Commercial plant protein hydrolysates like SE50MAF-UF, WGE80M-UF, CNE80M-UF, PCE80B obtained from FrieslandCampina Domo, USA were analysed by Liquid chromatography/Mass Spectrometry (LC/MS, LC/MS2) using a Waters Acquity UPLC and a Thermo-Finnigan LTQ mass spectrometer, which consists of an electrospray ionization (ESI) source and linear ion-trap (LIT) mass analyzer. The sample extract was split into two aliquots, dried, then reconstituted in acidic or basic LC-compatible solvents. One aliquot was analyzed using acidic positive ion optimized conditions and the other using basic negative ion optimized conditions in two independent injections using separate dedicated columns. Extracts reconstituted in acidic conditions were gradient eluted using water and methanol both containing 0.1% formic acid, while the basic extracts, which also use water/methanol, contain 6.5 mM ammonium bicarbonate. The MS analysis alternated between MS and data-dependent MS2 scans using dynamic exclusion. Biochemicals were identified by comparison to metabolomic library entries of purified standards or recurrent unknown entities. The combination of chromato-graphic properties and mass spectra gives an indication of a match to the specific compound or an isobaric entity. Thus, an overview of the biochemical components and their relative concentration present in plant protein hydrolysates was generated. Furthermore, all the hydrolysates were tested in the cell culture assays for cell growth and antibody production. […] Using the SLOPE function of Microsoft Excel 2003, the correlation between antibody production and relative concentration of the components was calculated, the results of which are presented in Table 1 below. The higher the positive slope, the higher the importance of a biochemical component in the cell culture. p-values, also calculated using MS Excel's correlation regression function, represent the significance of the values, with the lower the p-value (all between 0 and 1), the more significant the measured value.

[2] = system: IgG expressing CHO cell line (CHO-2: ATCC CRL 11397, producing IgG4); test: Cell growth of CHO cells in suspension culture (area under growth curve, CEDEX cell counts); format: cell-based, Chinese hamster; conditions: dimensionless AUC
Experimental: (§1) The cell culture assay was carried out in commercially available IS CHO-CD medium (Irvine Scientific, Cat. No. 91119). To this media, L-Glutamine (2 mM), pluronic acid, hypoxanthine (100 μM) and thymidine (15 μM) were added. Penicillin and streptomycin were added to prevent any bacterial growth during the growth assay. The media was supplemented with methyl-L-3-phenyl lactate or mucic acid, both purchased from Sigma Aldrich, Germany, in varying concentrations (1×10^−3 to 1×10^−1% (w/v), see Table 2). The supplemented medium was mixed with a vortex mixture, filtered using a 0.22 μm filter and subsequently used in a growth assay.
(§2) An IgG expressing CHO cell line was used (CHO-2: ATCC CRL 11397, producing IgG4). The cell lines were grown in the adherent conditions for a few passages and once confluent, they were transferred to animal-free conditions in the supplemented media described in Example 2.
(§3) To measure growth and production curves, Chinese hamster ovary (CHO) cells were grown in suspension culture in baffled flasks. 20×10^6 cells were transferred in 25 ml media to the baffled flasks. Chemically defined media with and without added alpha-hydroxy acid derivatives were tested. No fresh media was added during the growth assay. Cells were counted using the CEDEX HiRes cell counter (Innovatis, Germany). The cell counts were used to calculate the area under the growth curve and represented as dimensionless area under curve (AUC) values as described in detail in Ling, C. X, Huang, J. and Zhang, H. (2003), International joint conferences on artificial intelligence, pp. 329-341. The supernatant samples were taken every alternate days for the IgG production measurements. IgG production was measured using sandwich ELISA method. The specific IgG production was calculated by taking the ratio of cumulative IgG production (in mg/ml) and AUC measured at day 11 of the growth assay. The cells were visually inspected using a phase contrast microscope (Zeiss Axiovert 25, 400× magnification). […] Only single cells were observed and no aggregation of cells was seen. The cell shape was also positively affected. […] This was in contrast with the observation that a lot of cell aggregates were present in CHO cell cultures grown in chemically defined medium without alpha-hydroxy acid derivatives.

[3] = system: IgG expressing CHO cell line (CHO-2: ATCC CRL 11397, producing IgG4); test: Specific IgG production of CHO cells in supplemented chemically defined medium (sandwich ELISA / AUC); format: cell-based, Chinese hamster; conditions: ratio of cumulative IgG production (mg/ml) and AUC at day 11
Experimental: as §1, §2, §3

Structure (SMILES)	SLOPE (correlation of antibody production and relative concentration of the component) [1]	Cell growth (area under curve) after 14 days ([2]; 1 × 10^−1 % w/v added)	Specific IgG production after 11 days ([3]; 1 × 10^−1 % w/v added)	Cell growth (area under curve) after 14 days ([2]; 1 × 10^−2 % w/v added)	Cell growth (area under curve) after 14 days ([2]; 1 × 10^−3 % w/v added)	Specific IgG production after 11 days ([3]; 1 × 10^−2 % w/v added)	Specific IgG production after 11 days ([3]; 1 × 10^−3 % w/v added)
CC(C)CC(O)C(=O)O (stereo not drawn) [alpha-hydroxyisocaproic acid]	1654.23						
CC(C)C(O)C(=O)O (stereo not drawn) [alpha-hydroxyisovaleric acid]	2830.96						
COC(=O)[C@@H](O)Cc1ccccc1 [Methyl-L-3-phenyl lactate, methyl-L-3-phenyl lactate]		46.70	77.80				
O=C(O)[C@@H](O)[C@H](O)[C@H](O)[C@@H](O)C(=O)O [Mucic acid, mucic acid]	2108.11	48.29	84.61	49.64	49.88	90.27	90.85
